Assay results reported in paper PMC7663272, “Discovery of Tricyclic Pyranochromenone as Novel Bruton’s Tyrosine Kinase Inhibitors with In Vivo Antirheumatic Activity” (International Journal of Molecular Sciences, 2020).

Legend:
BMX = target: T1, BMX (Homo sapiens, UniProt P51813); assay: HotSpot kinase enzymatic assay, BMX; type: biochemical
T1 construct: purchased Reaction Biology Corporation
T1 sequence (P51813 1-675): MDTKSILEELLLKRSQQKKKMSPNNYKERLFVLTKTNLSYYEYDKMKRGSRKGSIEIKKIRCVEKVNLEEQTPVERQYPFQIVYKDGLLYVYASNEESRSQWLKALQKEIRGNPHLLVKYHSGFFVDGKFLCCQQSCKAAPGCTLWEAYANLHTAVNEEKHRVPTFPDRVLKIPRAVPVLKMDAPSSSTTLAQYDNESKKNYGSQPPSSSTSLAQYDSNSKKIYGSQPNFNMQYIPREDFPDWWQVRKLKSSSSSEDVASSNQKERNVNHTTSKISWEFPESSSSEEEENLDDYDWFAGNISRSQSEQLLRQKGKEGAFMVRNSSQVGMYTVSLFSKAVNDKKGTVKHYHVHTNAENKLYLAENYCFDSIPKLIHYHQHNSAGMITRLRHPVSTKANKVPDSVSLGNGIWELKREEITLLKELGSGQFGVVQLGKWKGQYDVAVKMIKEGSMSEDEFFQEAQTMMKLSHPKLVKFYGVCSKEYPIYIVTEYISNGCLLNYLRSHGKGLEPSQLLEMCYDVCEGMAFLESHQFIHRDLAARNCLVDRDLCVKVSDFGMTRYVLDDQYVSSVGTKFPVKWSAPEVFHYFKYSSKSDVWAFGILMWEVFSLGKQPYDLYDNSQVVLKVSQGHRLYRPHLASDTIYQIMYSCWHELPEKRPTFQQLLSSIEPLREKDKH
Experimental: (§1) Therefore, efforts have focused on developing new compounds with good selectivity profiles. […] Compound 8 was selective against BTK. The biochemical activities of compound 8 differed among TEC family kinases. […] The inhibitory potential of compound 8 differed between members of the EGFR family. […] The inhibitory activity of compound 8 against JAK3 was also low.
(§2) Kinase enzymatic assays for BTK, BMX, TXK, TEC, ITK, EGFR, ERBB2, ERBB4, and JAK3 were performed at Reaction Biology Corporation (www.reactionbiology.com, Malvern, PA, USA) using the HotSpot assay platform. Briefly, specific kinase/substrate pairs and the required cofactors were prepared in a reaction buffer comprising 20 mM HEPES (pH 7.5), 10 mM MgCl2, 1 mM EGTA, 0.02% Brij35, 0.02 mg/mL BSA, 0.1 mM Na3VO4, 2 mM DTT, and 1% DMSO. The compounds were added to the reaction mixture and allowed to incubate. Approximately 20 min later, a mixture of ATP (Sigma-Aldrich, St. Louis, MO, USA) and ^33P ATP (PerkinElmer, Waltham, MA, USA) was added to the reaction mixture at a final concentration of 10 μM. The reactions were performed at room temperature for 120 min; subsequently, the reactions were spotted onto P81 ion exchange filter papers (Whatman Inc., Maidstone, UK). Any unbound phosphate was removed by thoroughly washing the filter papers with 0.75% phosphoric acid. […]

ITK = target: T2, ITK (Homo sapiens, UniProt Q08881); assay: HotSpot kinase enzymatic assay, ITK; type: biochemical
T2 construct: purchased Reaction Biology Corporation
T2 sequence (Q08881 1-620): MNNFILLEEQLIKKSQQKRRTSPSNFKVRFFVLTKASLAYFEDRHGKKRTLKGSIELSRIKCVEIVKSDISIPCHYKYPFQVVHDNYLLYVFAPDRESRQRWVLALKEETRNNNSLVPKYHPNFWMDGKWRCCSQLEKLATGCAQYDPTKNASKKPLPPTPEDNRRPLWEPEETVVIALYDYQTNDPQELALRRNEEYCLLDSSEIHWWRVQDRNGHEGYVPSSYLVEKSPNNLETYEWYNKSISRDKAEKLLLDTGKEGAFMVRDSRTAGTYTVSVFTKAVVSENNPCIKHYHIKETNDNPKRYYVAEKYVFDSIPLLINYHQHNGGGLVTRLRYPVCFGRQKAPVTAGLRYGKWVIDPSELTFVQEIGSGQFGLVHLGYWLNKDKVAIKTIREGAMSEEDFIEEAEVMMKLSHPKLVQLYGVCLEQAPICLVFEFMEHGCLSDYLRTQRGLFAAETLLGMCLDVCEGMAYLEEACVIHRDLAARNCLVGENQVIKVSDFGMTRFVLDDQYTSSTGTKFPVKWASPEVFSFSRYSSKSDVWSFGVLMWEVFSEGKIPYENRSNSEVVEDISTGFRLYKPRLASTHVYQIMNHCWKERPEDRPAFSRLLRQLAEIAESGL
Experimental: as §1, §2

[1] = test system: IL-6 production in LPS-stimulated THP-1 cells; assay: LPS-induced IL-6 release in THP-1 cells (ELISA); type: cell-based, human
Text: BTK plays a critical role in high-affinity IgE receptor (FcεRI) and B cell receptor (BCR) signaling, resulting in the release of proinflammatory cytokines. Therefore, BTK inhibitor treatment can reduce the production of both lymphoid and myeloid cytokines. […] We examined the cellular effects of compound 8 on the production of cytokines IL-6 and TNF-α in LPS-stimulated THP-1 cells. Following treatment with LPS alone or LPS and compound 8, the levels of cytokines secreted by THP-1 cells were assessed (Figure 5). LPS increased the output of proinflammatory cytokines.
THP-1 cells were obtained from the American Type Culture Collection (ATCC, Manassas, VA, USA). The cells were cultured in RPMI-1640 supplemented with 10% FBS, 1% P/S, and 0.05 mM 2-mercaptoethanol and maintained at 37 °C and 5% CO2 in a humidified incubator. Cytokine secretion (hIL-6 and TNF-α) in the culture supernatants of the THP-1 cells was measured using a human cytokine ELISA kit (Abcam). Differentiated THP-1 cells were treated with agents and LPS for 24 h, after which the cell culture media was centrifuged at 2000× g for 10 min to remove debris. Briefly, each sample (50 μL) or standard was mixed with the appropriate detection antibody and incubated for 1 h at room temperature on a plate shaker. […] Subsequently, 100 μL of stop solution was added to each well, and the optical density (OD) was measured at 450 nm. […]

C=CC(=O)O[C@H]1Cc2cc3ccc(=O)oc3cc2OC1(C)C [Compound 8, (7S)-(+)-Acrylic acid, 8,8-dimethyl-2-oxo-6,7-dihydro-2H,8H-pyrano [3,2-g]chromen-7-yl ester]
inhibitory activity against BMX (in words) (BMX): strong inhibitory activity | inhibition at 10 µM (BMX; 10 µM, mean of two experiments): 95.4% | inhibitory activity against ITK (in words) (ITK): weak inhibitory activity | inhibition at 10 µM (ITK; 10 µM, mean of two experiments): 17.3% | production of IL-6 ([1]; LPS-stimulated differentiated THP-1 cells, 24 h, ELISA): significantly and dose-dependently reduced | inhibitory activity on IL-6 production at 10 μM, compared with ibrutinib ([1]; compound at 10 μM, ibrutinib at 2 μM): comparable with that of ibrutinib at 2 μM
